This note sets out measurements from US10077288B2, “Hydroxystatin derivatives for the treatment of arthrosis” (Merck Patent GmbH, priority 2012, dated 2018).

Molecules are shown by their SMILES.

For data set [1], the target named is T1, cathepsin D isolated from the human liver (Homo sapiens, UniProt P07339).
T1 construct: cathepsin D isolated from the human liver (Sigma-Aldrich); purchased Sigma-Aldrich; host or cells: human liver (tissue-derived, not recombinant)
Briefly: In-vitro fluorescence assay for identification of cathepsin D inhibitors. Type of data set: biochemical. The settings on record: human liver cathepsin D 1.4 nM, pH 5.5; read-out: CatD assay IC50-(M). The gist of the method: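 Continuous FRET assay: human liver cathepsin D (1.4 nM final) preincubated 10 min at room temperature with serially diluted compound in 100 mM sodium acetate, 1.25% DMSO, 0.25% Chaps, pH 5.5. Started with 5 μM MCA-GKPILFFRLK(Dnp)d-R-NH2; fluorescence increase (ex 340/em 450 nm) over 60 min at room temperature compared with no-compound control.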

Data set [2] in a line: Stability in bovine synovial fluid. The settings on record: 1 μM, up to 48 h at 37° C. Type of data set: in vitro ADME. The method, then:
EXAMPLE 7: STABILITY OF THE COMPOUNDS ACCORDING TO THE INVENTION IN BOVINE SYNOVIAL FLUID
In the preparation of bovine explants (for the diffusion chamber or other assays), either cow hoof (metacarpal joints) or cow knee is used. The synovial fluid can be obtained from both joints. To this end, the synovial fluid is carefully removed from the open joint using a 10 ml syringe and a cannula and transferred into prepared 2 ml Eppendorf vessels. The Eppendorf vessels are labelled depending on the animal (cow passport is available). […] If this is the case, the synovial fluid will become a reddish colour and must consequently be discarded. The synovial fluid is basically highly viscous and clear to yellowish in colour. The removal together with a macroscopic analysis of the synovial fluid is documented.
In order to check the stability of individual compounds, a pool of four different bovine synovial fluids is mixed. To this end, about 1 ml per SF is used. The mixture is prepared directly in a 5 ml glass vessel. The SFs are mixed thoroughly, but carefully. No air bubbles or foam should form. To this end, a vortex unit is used at the lowest speed. The compounds to be tested are tested in an initial concentration (unless required otherwise) of 1 μM. After addition of the substance, the batch is again mixed thoroughly and carefully. For visual monitoring, all SF batches are photographed, and the pictures are filed in the eLabBio file for the corresponding experiment. […] The batches are incubated in the incubator for 48 h at 37° C. and 7.5% CO2.
The sampling is carried out after the pre-agreed times (unless required otherwise, see below). 200 μl of the SF are removed from the mixture per time and transferred directly into a 0.5 ml “low-binding” Eppendorf vessel. […]
The concentrations measured (ng/ml) are plotted against the time in a graph (GraphPad Prism®). The percentage stability of the substance is determined here. […]
All compounds measured remained stable (see Table 2 in Example 1).

T1 sequence (P07339 65-161 limits assumed): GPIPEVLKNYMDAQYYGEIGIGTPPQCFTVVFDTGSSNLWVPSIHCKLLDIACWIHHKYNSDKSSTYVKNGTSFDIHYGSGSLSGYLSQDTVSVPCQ
T1 sequence (P07339 169-412 limits assumed): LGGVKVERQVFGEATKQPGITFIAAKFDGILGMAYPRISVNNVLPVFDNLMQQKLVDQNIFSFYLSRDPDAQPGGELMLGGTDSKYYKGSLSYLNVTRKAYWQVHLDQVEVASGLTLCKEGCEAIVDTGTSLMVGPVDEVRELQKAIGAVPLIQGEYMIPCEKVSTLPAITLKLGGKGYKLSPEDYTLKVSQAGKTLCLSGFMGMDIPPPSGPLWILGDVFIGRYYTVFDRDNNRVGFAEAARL

Take `CC[C@H](C)[C@H](NC(=O)C[C@H](O)[C@H](Cc1ccccc1)NC(=O)[C@@H](NC(=O)CCCc1ccccc1)C(C)C)C(=O)N[C@H](C(=O)O)C(C)C` [Compound 5, (S)-2-((2S,3S)-2-{(3S,4S)-3-hydroxy-4-[(S)-3-methyl-2-(4-phenyl-butyrylamino)butyrylamino]-5-phenylpentanoylamino}-3-methylpentanoylamino)-3-methylbutyric acid]: the IC50 (in general, the concentration that gives 50% inhibition) in data set [1] was found to be 3.41e-08 M. In data set [2], the “Stability in synovial fluid” value is “stable”.
Taken in the same sequence, the figures for `CC[C@H](C)[C@H](NC(=O)C[C@H](O)[C@H](Cc1ccccc1)NC(=O)[C@@H](NC(=O)Cc1cccc(OC)c1)C(C)C)C(=O)N[C@H](C(=O)O)C(C)C` [Compound 20, (S)-2-[(2S,3S)-2-((3S,4S)-3-hydroxy-4-{(S)-2-[2-(3-methoxyphenyl)-acetylamino]-3-methylbutyrylamino}-5-phenylpentanoylamino)-3-methylpentanoylamino]-3-methylbutyric acid] were 1.2e-08 M and “stable”.
Taken in the same sequence, the figures for `CC[C@H](C)[C@H](NC(=O)C[C@H](O)[C@H](Cc1ccccc1)NC(=O)[C@@H](NC(=O)CCc1ccccc1)C(C)C)C(=O)N[C@H](C(=O)O)C(C)C` [Compound 4, (S)-2-((2S,3S)-2-{(3S,4S)-3-hydroxy-4-[(S)-3-methyl-2-(3-phenyl-propionylamino)butyrylamino]-5-phenylpentanoylamino}-3-methylpentanoylamino)-3-methylbutyric acid] were 3e-08 M and “stable”.
